Drawing on patent US12509451B2, “Heteroaryl amide inhibitors of CD38” (NAPA THERAPEUTICS LTD., priority 2020, dated 2025), this text covers IC50 for 30 compounds.

The structures appear in SMILES notation.

In experiment [1] the target is T1, recombinant mouse CD38 Protein (Mus musculus, UniProt P56528).
T1 construct: purchased R&D System
T1 sequence (P56528 1-304): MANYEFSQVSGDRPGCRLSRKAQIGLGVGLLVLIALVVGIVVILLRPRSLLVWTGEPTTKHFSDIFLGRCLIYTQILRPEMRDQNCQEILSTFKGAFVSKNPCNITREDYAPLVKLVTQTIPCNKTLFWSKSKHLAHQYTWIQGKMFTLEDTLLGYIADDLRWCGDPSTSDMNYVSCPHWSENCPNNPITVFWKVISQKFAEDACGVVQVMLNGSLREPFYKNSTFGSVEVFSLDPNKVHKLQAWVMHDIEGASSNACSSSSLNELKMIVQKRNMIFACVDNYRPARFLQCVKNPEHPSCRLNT
The experiment can be described thus: Fluorescence-based NAD+ hydrolase activity assay with mouse recombinant CD38 protein (Assay 5). The format is biochemical. Conditions: read-out: Assay 5 Arithmetic mean IC50. The procedure: This protocol was modified from the following references: Muller et al. (1983); Schultz et al. (2018); Matalonga et al. (2017); and de Oliveira et al. (2018), supra.
NAD+ hydrolase activity of the mouse recombinant CD38 protein treated with test compounds was measured using a fluorescence-based assay. Briefly, recombinant mouse CD38 Protein (R&D System) was resuspended in 44 μl/well of Sucrose-Tris Buffer (Sucrose 0.25 M, Tris pH 7.4 40 mM) and plated in a 96 well black plate (CORNING) at a density of 2.5 ng/well.
Each test compound was received in a powder state and dissolved in DMSO as a 25 mM stock solution. Each test compound was serially diluted in order to generate a dose-response curve. The dilution series of each test compound in DMSO was prepared at 50 times the concentrations to be assayed. Each test compound was diluted to generate a 5-fold dilution series of 8 concentrations from 20 μM to 0.256 nM in order to assay 8 final concentrations ranging from 400 nM to 25.6 pM. One μl of the 50× concentration compound series was added to each well of the plate containing 2.5 ng of protein in Sucrose-Tris buffer.
Each plate had the following intra plate controls: 3 wells containing cells treated with vehicle only (DMSO), 3 wells of cells treated with the reference compounds 78c at a final concentration of 50 nM and 2 wells containing only Sucrose-Tris buffer (used as a background value).
(§1) The reaction was started adding nicotinamide 1,N^6-etheno-adenine dinucleotide (Sigma Aldrich) to reach a final concentration of 80 µM. The samples were excited at 321-15 nm and the emission of fluorescence was measured at 410-20 nm at 37° C. every minute for 1 hr in a Clariostar Microplate® reader (BMG LABTECH). NAD+ hydrolase activity was calculated as the slope of the linear portion of the fluorescence-time curve using the MARS data analysis software (BMG LABTECH). The data were uploaded in the Collaborative Drug Design (CDD) Software and for each compound the IC50 was calculated by the software. Each compound was tested in 3 independent experiments on 3 separate days to establish the reproducibility of the results. For each plate, the z-factor was also calculated as a plate quality using the CDD software.

In experiment [2] the target is T2, CD38 NAD+ hydrolase activity in NH7-dCas9 cells (Jurkat clone) (Homo sapiens, UniProt P28907).
T2 construct: The assay utilized CD38 expressing NH7-dCas9 cells (Jurkat clone); host or cells: NH7-dCas9 cells (Jurkat clone)
T2 sequence (P28907 1-300): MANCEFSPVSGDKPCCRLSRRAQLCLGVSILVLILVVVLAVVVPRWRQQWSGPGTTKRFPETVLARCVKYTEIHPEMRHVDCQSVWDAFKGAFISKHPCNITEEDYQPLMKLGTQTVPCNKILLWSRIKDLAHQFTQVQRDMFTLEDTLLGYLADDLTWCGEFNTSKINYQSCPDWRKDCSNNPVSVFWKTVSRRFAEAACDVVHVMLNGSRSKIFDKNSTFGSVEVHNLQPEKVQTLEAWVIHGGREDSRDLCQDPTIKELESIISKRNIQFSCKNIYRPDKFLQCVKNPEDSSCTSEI
The experiment can be described thus: Fluorescence-based NAD+ hydrolase activity assay with human T cell line NH7-dCas9 cells-Jurkat clone (Assay 1). Conditions: read-out: Assay 1 Arithmetic mean IC50. The procedure: For the modified assay, the performance validation criteria of the assay as a High Throughput Screening (HTS): Z-factor within the plate was greater than 0.89 (optimal HTS z-factor >0.5) and the Intra-plate, inter-plate and day to day variability (CV) was less than 20%.
NAD+ hydrolase activity of a human T cell line treated with test compounds was measured using a fluorescence-based assay. NH7-dCas9 cells (Jurkat clone) were provided by the Weissman Lab (UCSF 1700 4th St., Byers Hall, Room 403B, San Francisco, CA 94158-2330). Briefly, cells were centrifuged, resuspended in 44 μl PBS/10^6 cells and plated in a 96 well black plate (CORNING) at a density of 1×10^6 per well.
Each test compound was received in a powder state and dissolved in DMSO as a 25 mM stock solution. Each test compound was serially diluted in order to generate a dose-response curve. The dilution series of each test compound in DMSO was prepared at 50 times the concentrations to be assayed. Each test compound was diluted to generate a 5-fold dilution series of 8 concentrations from 20 μM to 0.256 nM in order to assay 8 final concentrations ranging from 400 nM to 25.6 pM. One μl of the 50× concentration compound series was added to each well of the plate containing 1×10^6 cells in PBS.
Each plate had the following intra plate controls: 3 wells containing cells treated with vehicle only (DMSO), 3 wells of cells treated with the reference compound 78c at a final concentration of 50 nM and 2 wells containing only PBS (used as a background value).
as §1, with “started by” for “started”, “321-15 nm,” for “321-15 nm”, “a Clariostar® microplate” for “a Clariostar Microplate®”

A word on the IC50: it is the point on the concentration scale where inhibition reaches its midpoint. With `CNC(=O)c1ccc(NC(=O)c2cccc(-n3ccnc3)n2)cn1` [Compound 2], the IC50 in experiment [1] and in experiment [2] was less than 1 nM in each case.
Consider `NC(=O)c1ccc(NC(=O)c2cccc(-n3ccnc3)n2)cn1` [Compound 3], for which the values for the IC50 in experiment [1] and in experiment [2] were 1 to 50 nM and less than 1 nM, respectively.
With `Cc1cc(NC(=O)c2cccc(-n3ccnc3)n2)cc(C)n1` [Compound 7], the half-inhibitory concentration (IC50) in experiment [1] and in experiment [2] was less than 1 nM throughout.
For `O=C(Nc1ccnc(F)c1)c1cccc(-n2ccnc2)n1` [Compound 8], the IC50 in experiment [1] was 1 to 50 nM; in experiment [2], less than 1 nM.
For `O=C(Nc1ccc(C(F)(F)F)nc1)c1cccc(-n2ccnc2)n1` [Compound 9], the IC50 in experiment [1] and in experiment [2] was 1 to 50 nM each time.
In the case of `Cc1cc(NC(=O)c2cccc(-n3ccnc3)n2)ccn1` [Compound 11], the IC50 in experiment [1] and in experiment [2] was 1 to 50 nM each time.
In the case of `COc1cc(NC(=O)c2cccc(-n3ccnc3)n2)ccn1` [Compound 12], the IC50 in experiment [1] and in experiment [2] was 1 to 50 nM throughout.
As for `O=C(Nc1ccncc1)c1cccc(-n2ccnc2)n1` [Compound 13], the IC50 in experiment [1] and in experiment [2] was 1 to 50 nM each time.
As for `Cc1ccc(NC(=O)c2cccc(-n3ccnc3)n2)cn1` [Compound 14], the IC50 in experiment [1] and in experiment [2] was 1 to 50 nM each time.
For the compound `CC(=O)N(C)c1ccc(NC(=O)c2cccc(-n3ccnc3)n2)cn1` [Compound 15], the IC50 in experiment [1] and in experiment [2] was 1 to 50 nM each time.
Take `CC(=O)Nc1ccc(NC(=O)c2cccc(-n3ccnc3)n2)cn1` [Compound 16]: the IC50 in experiment [1] and in experiment [2] was 1 to 50 nM in each case.
`COc1ccc(NC(=O)c2cccc(-n3ccnc3)n2)cn1` [Compound 18]: the half-inhibitory concentration (IC50) in experiment [1] and in experiment [2] was 1 to 50 nM throughout.
Consider `O=C(Nc1cccnc1)c1cccc(-n2ccnc2)n1` [Compound 20], for which the IC50 in experiment [1] and in experiment [2] was 1 to 50 nM in each case.
Regarding `O=C(Nc1ccc(F)nc1)c1cccc(-n2ccnc2)n1` [Compound 22], the concentration for half-maximal inhibition (IC50) in experiment [1] and in experiment [2] was 1 to 50 nM each time.
As to `O=C(Nc1ccncn1)c1cccc(-n2ccnc2)n1` [Compound 24], the IC50 in experiment [1] and in experiment [2] was 1 to 50 nM throughout.
Take `COC(=O)c1ccc(NC(=O)c2cccc(-n3ccnc3)n2)cn1` [Compound 27]: the half-inhibitory concentration (IC50) in experiment [1] and in experiment [2] was 1 to 50 nM in each case.
On to `O=C(Nc1ccnc(C(F)(F)F)c1)c1cccc(-n2ccnc2)n1` [Compound 28], for which the IC50 in experiment [1] is 1 to 50 nM; in experiment [2] it was less than 1 nM.
On to `O=C(Nc1ccnc(C(F)(F)F)c1)c1cc(OCc2ccccc2)cc(-n2ccnc2)n1` [Compound 29, 4-(benzyloxy)-6-(1H-imidazol-1-yl)-N-[2-(trifluoromethyl)pyridin-4-yl]pyridine-2-carboxamide], for which the IC50 in experiment [1] and in experiment [2] was less than 1 nM each time.
With `O=C(Nc1ccnc(C(F)(F)F)c1)c1cc(OCC2CCOCC2)cc(-n2ccnc2)n1` [Compound 30, 6-(1H-imidazol-1-yl)-4-((tetrahydro-2H-pyran-4-yl)methoxy)-N-(2-(trifluoromethyl)pyridin-4-yl)picolinamide], the half-inhibitory concentration (IC50) in experiment [1] and in experiment [2] was less than 1 nM in each case.
On to `COCCOc1cc(C(=O)Nc2ccnc(C(F)(F)F)c2)nc(-n2ccnc2)c1` [Compound 31, 6-(1H-imidazol-1-yl)-4-(2-methoxyethoxy)-N-(2-(trifluoromethyl)pyridin-4-yl)picolinamide], for which the IC50 in experiment [1] and in experiment [2] was less than 1 nM throughout.
As for `O=C(Nc1ccnc(C(F)(F)F)c1)c1cc(OC2CC2)cc(-n2ccnc2)n1` [Compound 32, 4-cyclopropoxy-6-(1H-imidazol-1-yl)-N-(2-(trifluoromethyl)pyridin-4-yl)picolinamide], the results for the IC50 in experiment [1] and in experiment [2] were 51 to 1000 nM and less than 1 nM, respectively.
For `CN(C)CCOc1cc(C(=O)Nc2ccnc(C(F)(F)F)c2)nc(-n2ccnc2)c1` [Compound 33] the same measures were less than 1 nM and less than 1 nM.
For the compound `CC1(Oc2cc(C(=O)Nc3ccnc(C(F)(F)F)c3)nc(-n3ccnc3)c2)COC1` [Compound 34, 6-(1H-imidazol-1-yl)-4-((3-methyloxetan-3-yl)oxy)-N-(2-(trifluoromethyl)pyridin-4-yl)picolinamide], in experiment [1], the half-inhibitory concentration (IC50) is less than 1 nM.
Regarding `COc1cc(C(=O)Nc2ccnc(C(F)(F)F)c2)nc(-n2ccnc2)c1` [Compound 35, 6-(1H-imidazol-1-yl)-4-methoxy-N-(2-(trifluoromethyl)pyridin-4-yl)picolinamide], the IC50 in experiment [1] and in experiment [2] was less than 1 nM throughout.
Consider `COc1cc(C(=O)Nc2cccnc2)nc(-n2ccnc2)c1` [Compound 36], for which the IC50 in experiment [1] and in experiment [2] was 1 to 50 nM each time.
In the case of `COc1cc(C(=O)Nc2ccnc(C(F)(F)F)c2)nc(-n2ccnc2)n1` [Compound 37, 2-(1H-imidazol-1-yl)-6-methoxy-N-(2-(trifluoromethyl)pyridin-4-yl)pyrimidine-4-carboxamide], the concentration for half-maximal inhibition (IC50) in experiment [1] and in experiment [2] was less than 1 nM each time.
In the case of `CCOc1cc(C(=O)Nc2ccnc(C(F)(F)F)c2)nc(-n2ccnc2)n1` [Compound 38], the IC50 in experiment [1] and in experiment [2] was less than 1 nM in each case.
On to `COCCOc1cc(C(=O)Nc2ccnc(C(F)(F)F)c2)nc(-n2ccnc2)n1` [Compound 39, 2-(1H-imidazol-1-yl)-6-(2-methoxyethoxy)-N-(2-(trifluoromethyl)pyridin-4-yl)pyrimidine-4-carboxamide], for which the IC50 in experiment [1] and in experiment [2] was less than 1 nM throughout.
Regarding `O=C(Nc1ccnc(C(F)(F)F)c1)c1cc(OC2CC2)nc(-n2ccnc2)n1` [Compound 40], the half-inhibitory concentration (IC50) in experiment [1] is less than 1 nM.
As to `O=C(Nc1ccnc(C(F)(F)F)c1)c1cc(C2CC2)nc(-n2ccnc2)n1` [Compound 51, 6-cyclopropyl-2-(1H-imidazol-1-yl)-N-(2-(trifluoromethyl)pyridin-4-yl)pyrimidine-4-carboxamide], the IC50 in experiment [1] was less than 1 nM.
